Literature values, collected in patent US7148350B2, “Compounds in the form of homodimeric or heterodimeric pro-drugs; process for obtaining these pro-drugs and their acceptable pharmaceutical salts and use of compounds in the treatment of phosphodiesterases-mediated diseases or dysfunction” (Cristalia Prod.Qui.Farm. LTDA, priority 2000, dated 2006).
Values belong to the compound of their own block, whether it stands above or below them.

Legend:
[1] = dimer versus isolated monomers
[2] = test system: granulocyte progenitor cells and macrophages; conditions: dimer versus monomers
erectile dysfunction = conditions: oral administration; patients with organic erectile dysfunction
[3] = after administration; limited by pre-systemic metabolism

EC50 [1]: 3.9 nM | oral bioavailability (after oral administration of AZT-P-DDI): 64.7–67.3%
SMILES: Cc1cn([C@H]2C[C@H](N=[N+]=[N-])[C@@H](CO)O2)c(=O)[nH]c1=O [AZT, zidovudine]

EC50 [1]: 0.14 nM | time after which plasmatic concentration is no longer detected (intravenous administration, 50 or 100 mg): 30 min | detection of the dimer after oral administration (oral administration): not detected
SMILES: Cc1cn([C@H]2C[C@H](N=[N+]=[N-])[C@@H](COP(=O)(O)OC[C@@H]3CC[C@H](n4cnc5c(=O)[nH]cnc54)O3)O2)c(=O)[nH]c1=O [AZT-P-DDI]
less toxicity (fold) [2]: 10 times

EC50 [1]: 460 nM
SMILES: O=c1[nH]cnc2c1ncn2[C@H]1CC[C@@H](CO)O1 [DDI, didanosine]

SMILES: COC(=O)[C@@H]1[C@H]2C[C@H]3c4[nH]c5ccccc5c4CCN3C[C@@H]2CC[C@@H]1O [Yohimbine]
effectiveness (erectile dysfunction): low

absolute bioavailability [3]: 40%
SMILES: CCCc1nn(C)c2c(=O)[nH]c(-c3cc(S(=O)(=O)N4CCN(C)CC4)ccc3OCC)nc12 [sildenafil]
